Experimental data: US20230085307A1, “PYRIDAZINONE COMPOUND AND HERBICIDE” (NISSAN CHEMICAL CORPORATION, priority 2019, published 2023)

Tests used:
barnyard grass [1] = experiment: Test Example 3: herbicidal effect by foliage application, Wagner pot (Table 18, symbol H); type: in vivo, barnyard grass (Echinochloa crus-galli); conditions: 320 g/ha
How it was run: (§1)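 Plants were sown in alluvial soil held under 0.1–0.5 cm standing water and grown 14 days in a greenhouse at 25–30 °C. An emulsifiable formulation, water-diluted to the set dose, was then sprayed onto the foliage, and effects were scored three weeks later using previously defined criteria.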

Chinese sprangletop = experiment: Test Example 3: herbicidal effect by foliage application, Wagner pot (Table 18, symbol D); type: in vivo, chinese sprangletop (Leptochloa chinensis); conditions: 320 g/ha
How it was run: as §1

rice flat sedge = experiment: Test Example 3: herbicidal effect by foliage application, Wagner pot (Table 18, symbol E); type: in vivo, rice flat sedge (Cyperus iria); conditions: 320 g/ha
How it was run: as §1

southern crabgrass [2] = experiment: Test Example 4: herbicidal effect by soil treatment (Table 19, symbol F); type: in vivo, southern crabgrass (Digitaria ciliaris); conditions: AAH 320 g/ha
How it was run: (§2)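 Applied as a water-diluted emulsion, the compound was sprayed onto soil covering newly sown seeds. Evaluation came three weeks after application, in a greenhouse held at 25° C. to 30° C.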

green foxtail [3] = experiment: Test Example 4: herbicidal effect by soil treatment (Table 19, symbol G); type: in vivo, green foxtail (Setaria viridis); conditions: AAH 320 g/ha
How it was run: as §2

barnyard grass [4] = experiment: Test Example 4: herbicidal effect by soil treatment (Table 19, symbol H); type: in vivo, barnyard grass (Echinochloa crus-galli); conditions: AAH 320 g/ha
How it was run: as §2

wild oat [5] = experiment: Test Example 4: herbicidal effect by soil treatment (Table 19, symbol I); type: in vivo, wild oat (Avena fatua); conditions: AAH 320 g/ha
How it was run: as §2

blackgrass [6] = experiment: Test Example 4: herbicidal effect by soil treatment (Table 19, symbol J); type: in vivo, blackgrass (Alopecurus myosuroides); conditions: AAH 320 g/ha
How it was run: as §2

Italian ryegrass [7] = experiment: Test Example 4: herbicidal effect by soil treatment (Table 19, symbol K); type: in vivo, Italian ryegrass (Lolium multiflorum); conditions: AAH 320 g/ha
How it was run: as §2

windgrass = experiment: Test Example 4: herbicidal effect by soil treatment (Table 19, symbol L); type: in vivo, windgrass (Apera spica-venti); conditions: AAH 320 g/ha
How it was run: as §2

velvetleaf [8] = experiment: Test Example 4: herbicidal effect by soil treatment (Table 19, symbol M); type: in vivo, velvetleaf (Abutilon theophrasti); conditions: AAH 320 g/ha
How it was run: as §2

redroot pigweed = experiment: Test Example 4: herbicidal effect by soil treatment (Table 19, symbol N); type: in vivo, redroot pigweed (Amaranthus retroflexus); conditions: AAH 320 g/ha
How it was run: as §2

lambsquarters [9] = experiment: Test Example 4: herbicidal effect by soil treatment (Table 19, symbol O); type: in vivo, lambsquarters (Chenopodium album); conditions: AAH 320 g/ha
How it was run: as §2

chickweed = experiment: Test Example 4: herbicidal effect by soil treatment (Table 19, symbol P); type: in vivo, common chickweed (Stellaria media); conditions: AAH 320 g/ha
How it was run: as §2

false cleavers = experiment: Test Example 4: herbicidal effect by soil treatment (Table 19, symbol Q); type: in vivo, false cleavers (Galium spurium); conditions: AAH 320 g/ha
How it was run: as §2

persian speedwell [10] = experiment: Test Example 4: herbicidal effect by soil treatment (Table 19, symbol R); type: in vivo, Persian speedwell (Veronica persica); conditions: AAH 320 g/ha
How it was run: as §2

southern crabgrass [11] = experiment: Test Example 5: herbicidal effect by foliage application, plastic box (Table 20, symbol F); type: in vivo, southern crabgrass (Digitaria ciliaris); conditions: foliage application, 320 g/ha, 3 weeks after application
How it was run: (§3)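 Sow seeds spot-wise in sterilized diluvial soil; cover with ~1.5 cm soil. Grow 14 days in greenhouse, 25° C. to 30° C. Spray foliage with emulsion diluted to predetermined amount. Rate effect after 3 weeks.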

green foxtail [12] = experiment: Test Example 5: herbicidal effect by foliage application, plastic box (Table 20, symbol G); type: in vivo, green foxtail (Setaria viridis); conditions: foliage application, 320 g/ha, 3 weeks after application
How it was run: as §3

barnyard grass [13] = experiment: Test Example 5: herbicidal effect by foliage application, plastic box (Table 20, symbol H); type: in vivo, barnyard grass (Echinochloa crus-galli); conditions: foliage application, 320 g/ha, 3 weeks after application
How it was run: as §3

wild oat [14] = experiment: Test Example 5: herbicidal effect by foliage application, plastic box (Table 20, symbol I); type: in vivo, wild oat (Avena fatua); conditions: foliage application, 320 g/ha, 3 weeks after application
How it was run: as §3

blackgrass [15] = experiment: Test Example 5: herbicidal effect by foliage application, plastic box (Table 20, symbol J); type: in vivo, blackgrass (Alopecurus myosuroides); conditions: foliage application, 320 g/ha, 3 weeks after application
How it was run: as §3

Italian ryegrass [16] = experiment: Test Example 5: herbicidal effect by foliage application, plastic box (Table 20, symbol K); type: in vivo, Italian ryegrass (Lolium multiflorum); conditions: foliage application, 320 g/ha, 3 weeks after application
How it was run: as §3

velvetleaf [17] = experiment: Test Example 5: herbicidal effect by foliage application, plastic box (Table 20, symbol M); type: in vivo, velvetleaf (Abutilon theophrasti); conditions: foliage application, 320 g/ha, 3 weeks after application
How it was run: as §3

lambsquarters [18] = experiment: Test Example 5: herbicidal effect by foliage application, plastic box (Table 20, symbol O); type: in vivo, lambsquarters (Chenopodium album); conditions: foliage application, 320 g/ha, 3 weeks after application
How it was run: as §3

persian speedwell [19] = experiment: Test Example 5: herbicidal effect by foliage application, plastic box (Table 20, symbol R); type: in vivo, Persian speedwell (Veronica persica); conditions: foliage application, 320 g/ha, 3 weeks after application
How it was run: as §3

## COCCOCc1ccc(-c2sc3ccccc3c2-c2c(O)c(C)nn(C)c2=O)cc1 [1-255]
Barnyard grass [1]
  herbicidal effect on H (barnyard grass), rating 0-5: 5 (Herbicidal rate of 90% or more (almost completely withered))
Chinese sprangletop
  herbicidal effect on D (Chinese sprangletop), rating 0-5: 3 (Herbicidal rate of 40% or more and less than 70%)
Rice flat sedge
  herbicidal effect on E (rice flat sedge), rating 0-5: 5 (Herbicidal rate of 90% or more (almost completely withered))
Southern crabgrass [2]
  F: southern crabgrass, herbicidal effect rating: 3 (Herbicidal rate of 40% or more and less than 70%)
Green foxtail [3]
  G: green foxtail, herbicidal effect rating: 4 (Herbicidal rate of 70% or more and less than 90%)
Barnyard grass [4]
  H: barnyard grass, herbicidal effect rating: 5 (Herbicidal rate of 90% or more (almost completely withered))
Wild oat [5]
  I: wild oat, herbicidal effect rating: 0 (Herbicidal rate of 5% or less (almost no effect))
Blackgrass [6]
  J: blackgrass, herbicidal effect rating: 2 (Herbicidal rate of 20% or more and less than 40%)
Italian ryegrass [7]
  K: Italian ryegrass, herbicidal effect rating: 4 (Herbicidal rate of 70% or more and less than 90%)
windgrass
  L: windgrass, herbicidal effect rating: 0 (Herbicidal rate of 5% or less (almost no effect))
Velvetleaf [8]
  M: velvetleaf, herbicidal effect rating: 4 (Herbicidal rate of 70% or more and less than 90%)
Redroot pigweed
  N: redroot pigweed, herbicidal effect rating: 5 (Herbicidal rate of 90% or more (almost completely withered))
Lambsquarters [9]
  O: lambsquarters, herbicidal effect rating: 5 (Herbicidal rate of 90% or more (almost completely withered))
chickweed
  P: chickweed, herbicidal effect rating: 4 (Herbicidal rate of 70% or more and less than 90%)
False cleavers
  Q: false cleavers, herbicidal effect rating: 0 (Herbicidal rate of 5% or less (almost no effect))
Persian speedwell [10]
  R: persian speedwell, herbicidal effect rating: 5 (Herbicidal rate of 90% or more (almost completely withered))
Southern crabgrass [11]
  effect on southern crabgrass (F): 4 (Herbicidal rate of 70% or more and less than 90%)
Green foxtail [12]
  effect on green foxtail (G): 5 (Herbicidal rate of 90% or more (almost completely withered))
Barnyard grass [13]
  effect on barnyard grass (H): 5 (Herbicidal rate of 90% or more (almost completely withered))
Wild oat [14]
  effect on wild oat (I): 0 (Herbicidal rate of 5% or less (almost no effect))
Blackgrass [15]
  effect on blackgrass (J): 4 (Herbicidal rate of 70% or more and less than 90%)
Italian ryegrass [16]
  effect on Italian ryegrass (K): 5 (Herbicidal rate of 90% or more (almost completely withered))
Velvetleaf [17]
  effect on velvetleaf (M): 5 (Herbicidal rate of 90% or more (almost completely withered))
Lambsquarters [18]
  effect on lambsquarters (O): 5 (Herbicidal rate of 90% or more (almost completely withered))
Persian speedwell [19]
  effect on persian speedwell (R): 5 (Herbicidal rate of 90% or more (almost completely withered))
